In ChEMBL document CHEMBL1201862, “PubChem BioAssay data set” (2004) one finds EC50, AC50 and IC50 data, which are given here for 8 compounds.

Calls of active or inactive are those of the source.

As usually defined, the EC50 is the concentration that produces a half-maximal response. In general, AC50 refers to the concentration at which the activity in the assay is half-maximal. One may read the IC50 as the concentration needed to halve the response being measured.

In assay [1] the test system is Streptococcus sp. 'group A'. The assay is described as follows: growth inhibition of control SK(-) GAS strain, dose response, counter-screen for streptokinase expression inhibitor project, luminescence, kanamycin, BacTiterGlo, confirmation (AID 1900). The format is functional, organism-based.
Assay [2] has as its system Streptococcus. As to the kind of experiment: Luminescence Microorganism-Based Dose Response Follow up to Identify Compounds Cytotoxic to Streptococcus. [Related pubchem assays: 1677 (Project Summary), 1915, 1914, 1902 (Retest at Dose), 1900 (Counter Screen), 1662 (Primary HTS)]. It counts as functional, organism-based. In general terms: A counterscreen serves to expose hits that act by an unwanted route or on another target.

In the next assay the target is T1, Streptokinase A (Streptococcus pyogenes serotype M1, UniProt P10520).
T1 sequence (P10520 whole entry): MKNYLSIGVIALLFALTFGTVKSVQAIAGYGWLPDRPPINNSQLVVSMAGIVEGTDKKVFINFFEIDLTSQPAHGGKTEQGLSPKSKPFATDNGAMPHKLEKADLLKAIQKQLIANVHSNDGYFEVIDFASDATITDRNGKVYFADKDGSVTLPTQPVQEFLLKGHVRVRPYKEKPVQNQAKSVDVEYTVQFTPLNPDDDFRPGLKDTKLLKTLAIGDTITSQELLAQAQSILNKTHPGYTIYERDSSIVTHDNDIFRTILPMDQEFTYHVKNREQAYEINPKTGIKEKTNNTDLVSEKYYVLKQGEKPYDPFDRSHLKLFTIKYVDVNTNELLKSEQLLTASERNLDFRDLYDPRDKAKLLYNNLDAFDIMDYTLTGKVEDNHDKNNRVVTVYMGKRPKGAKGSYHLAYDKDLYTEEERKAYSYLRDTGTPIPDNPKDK
The assay is described as follows: S. pyogenes streptokinase expression inhibitors, potency, dose response, plasminogen activation absorbance, OD405 (AID 1914).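 Note: secreted streptokinase activity via plasminogen activation per viability signal from cell pellet.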 It counts as functional, Streptococcus pyogenes M1 GAS.

For assay [3], the system named is Streptococcus. The assay is described as follows: Group A Streptococcus viability loss, dose response, counter-screen for streptokinase expression inhibitor project, luminescence, BacTiterGlo (AID 1915).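 Note: potency for reduction of bacterial viability or growth.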 It counts as functional, organism-based.
For assay [4], the target named is G2/mitotic-specific cyclin-B1 (Homo sapiens, UniProt P14635). As to the kind of experiment: Counterscreen assay for inhibitors of Wee1 degradation: dose response cell-based assay to identify inhibitors of cyclin B degradation. [Related pubchem assays: 1410, 1321 ]. It counts as functional.
Assay [5] concerns the target E3 ubiquitin-protein ligase Mdm2 (Homo sapiens, UniProt Q00987). As to the kind of experiment: enhancers of MDM2-luciferase reporter signal, concentration-effect titration, project on inhibitors of MDM2 ubiquitin ligase, cellular assay, luminescent readout, 384-well plate format (AID 1394).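 Note: MDM2 E3 inhibitors raise luminescence so EC50 is for signal enhancement.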 The format is functional. (In general: A reporter such as luciferase makes a cellular process visible.)

For another assay, the target named is Wee1-like protein kinase (Homo sapiens, UniProt P30291). The assay is described as follows: Dose Response Cell-based Assay for Inhibitors of Wee1 Degradation. [Related pubchem assays: 1410, 1321 ]. It counts as functional.
Assay [6] relates to BJ. As to the kind of experiment: cells. The format is functional, cell-based. The following applies: Homo sapiens.
Assay [7] can be described thus: inhibitors of intracellular T. cruzi replication, confirmation, NIH3T3 host cells, beta-gal luminescence (AID 2044).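 Note: intracellular parasites grown in NIH/3T3 mouse fibroblasts as host cells; luminescent beta-galactosidase reporter signal from transgenic T. cruzi replicating inside host cells; inhibitors lower the luminescence signal.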 The format is functional, cell-based.
Assay [8] in a line: cytotoxicity toward NIH3T3 fibroblasts, dose response, counter-screen, cell-based, ATP luminescence, mouse fibroblasts (AID 2010).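 Note: cells exposed to compound for about 90 hours before reading.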 It counts as functional.
The test system of assay [9] is BJ. As to the kind of experiment: cytotoxicity toward BJ-TERT-LT-ST fibroblasts, dose response, cell-based, RAS-independent, luminescence (AID 1935).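 Note: BJ fibroblasts immortalized with TERT plus LT and ST oncogenes.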 It counts as functional. The settings on record: Homo sapiens.
Assay [10] is described as follows: cytotoxicity toward DRD oncogenic fibroblasts, dose response, cell-based, non-viral oncogenic, luminescence (AID 1934). The format is functional. The settings on record: Homo sapiens.
The target of assay [11] is T2, Replicative DNA helicase DnaB (Mycobacterium tuberculosis, UniProt P9WMR3).
T2 sequence (P9WMR3 whole entry): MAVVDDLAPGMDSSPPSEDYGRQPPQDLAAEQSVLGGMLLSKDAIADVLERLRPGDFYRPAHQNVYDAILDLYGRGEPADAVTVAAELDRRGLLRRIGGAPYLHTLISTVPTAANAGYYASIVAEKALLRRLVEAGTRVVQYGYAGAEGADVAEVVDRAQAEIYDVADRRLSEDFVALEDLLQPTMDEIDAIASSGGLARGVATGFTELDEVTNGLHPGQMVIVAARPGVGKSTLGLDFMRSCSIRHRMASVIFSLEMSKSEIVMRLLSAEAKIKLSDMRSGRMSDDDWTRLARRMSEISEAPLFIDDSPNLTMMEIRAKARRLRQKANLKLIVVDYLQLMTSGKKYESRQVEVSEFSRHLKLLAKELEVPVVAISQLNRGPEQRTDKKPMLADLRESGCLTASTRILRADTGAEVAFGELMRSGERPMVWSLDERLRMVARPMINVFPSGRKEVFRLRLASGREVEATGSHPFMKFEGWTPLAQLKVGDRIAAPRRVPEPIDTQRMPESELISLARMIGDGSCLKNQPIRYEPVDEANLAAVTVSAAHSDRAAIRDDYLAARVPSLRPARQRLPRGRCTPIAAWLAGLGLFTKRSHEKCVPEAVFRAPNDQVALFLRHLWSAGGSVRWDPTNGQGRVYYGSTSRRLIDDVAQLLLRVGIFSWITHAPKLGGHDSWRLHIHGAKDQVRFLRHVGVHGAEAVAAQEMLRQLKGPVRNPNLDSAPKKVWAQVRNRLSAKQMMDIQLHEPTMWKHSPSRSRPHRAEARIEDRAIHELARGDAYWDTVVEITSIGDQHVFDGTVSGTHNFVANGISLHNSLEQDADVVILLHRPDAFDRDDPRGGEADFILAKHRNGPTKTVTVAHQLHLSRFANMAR
As to the kind of experiment: DnaB intein splicing inhibitors, dose response, biochemical, cell-free fluorescence (AID 449749). It counts as functional.

The target of a further assay is T3, Protein RecA (Mycobacterium tuberculosis, UniProt P9WHJ3).
T3 sequence (P9WHJ3 whole entry): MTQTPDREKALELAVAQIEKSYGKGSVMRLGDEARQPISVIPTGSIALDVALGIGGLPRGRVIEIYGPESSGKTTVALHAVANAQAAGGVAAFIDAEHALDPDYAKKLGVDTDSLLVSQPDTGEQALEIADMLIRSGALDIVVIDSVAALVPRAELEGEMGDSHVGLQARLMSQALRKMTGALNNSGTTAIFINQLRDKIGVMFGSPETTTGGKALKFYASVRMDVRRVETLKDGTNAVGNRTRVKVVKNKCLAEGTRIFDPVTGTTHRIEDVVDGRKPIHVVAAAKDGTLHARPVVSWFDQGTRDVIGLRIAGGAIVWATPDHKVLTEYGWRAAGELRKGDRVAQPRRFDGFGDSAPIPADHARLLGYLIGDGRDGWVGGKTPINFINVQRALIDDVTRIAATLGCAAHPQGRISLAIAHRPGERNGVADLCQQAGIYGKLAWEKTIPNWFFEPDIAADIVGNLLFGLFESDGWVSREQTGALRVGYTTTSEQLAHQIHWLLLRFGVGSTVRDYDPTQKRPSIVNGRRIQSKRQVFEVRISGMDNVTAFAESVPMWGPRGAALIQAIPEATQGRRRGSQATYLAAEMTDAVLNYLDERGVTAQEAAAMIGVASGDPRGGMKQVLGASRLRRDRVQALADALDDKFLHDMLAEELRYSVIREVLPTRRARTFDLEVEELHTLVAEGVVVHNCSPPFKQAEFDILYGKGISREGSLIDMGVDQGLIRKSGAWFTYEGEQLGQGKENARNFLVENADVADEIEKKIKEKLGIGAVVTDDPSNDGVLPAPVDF
As to the kind of experiment: Fluorescence Cell-Free Homogeneous Dose Retest to Identify Inhibitors of RecA-Intein Splicing Activity. [Related pubchem assays (depositor defined):AID2097, AID2223, AID489010, AID492950]. The format is functional.

In assay [12] the target is Lysosomal acid glucosylceramidase (Homo sapiens, UniProt P04062). As to the kind of experiment: Dose response cell-based high throughput screening assay to identify enhancers of beta-glucosidase activity. [Related pubchem assays: 784 ]. The format is functional.
In assay [13] the target is T4, G-protein coupled receptor 35 (Homo sapiens, UniProt Q9HC97). The assay is described as follows: SAR analysis of Antagonists of the GPR35 Receptor using an Image-Based Assay - Set 5. [Related pubchem assays (depositor defined):AID2058, AID2079]. It counts as functional.
The target in assay [14] is T4, G-protein coupled receptor 35. As to the kind of experiment: SAR Analysis for the identification of Selective Antagonists of ERK1/2 Activity in GPR35-Overexpressing U2OS Cells - Set 2. [Related pubchem assays (depositor defined):AID2058, AID2079]. It counts as functional, cell-based.
Assay [15] has as its target G-protein coupled receptor 55 (Homo sapiens, UniProt Q9Y2T6). As to the kind of experiment: SAR Analysis of Selective Antagonists of GPR55 using an Image-Based Assay - Set 3. [Related pubchem assays (depositor defined):AID2058, AID2079]. It counts as functional.
The target in a further assay is Cytochrome P450 2C9 (Homo sapiens, UniProt P11712). The settings on record: Potency.
Another assay deals with Protein Rev (Human immunodeficiency virus type 1 group M subtype B (isolate WMJ22)(HIV-1), UniProt P05866). As to the kind of experiment: HIV-1 Rev-RRE RNA binding disruptors, dose response, biochemical, protein-RNA interaction (AID 842). Also on record: species or system Human immunodeficiency virus 1.
In assay [16] the target is T5, Neuropeptides B/W receptor type 1 (Homo sapiens, UniProt P48145).
T5 sequence (P48145 whole entry): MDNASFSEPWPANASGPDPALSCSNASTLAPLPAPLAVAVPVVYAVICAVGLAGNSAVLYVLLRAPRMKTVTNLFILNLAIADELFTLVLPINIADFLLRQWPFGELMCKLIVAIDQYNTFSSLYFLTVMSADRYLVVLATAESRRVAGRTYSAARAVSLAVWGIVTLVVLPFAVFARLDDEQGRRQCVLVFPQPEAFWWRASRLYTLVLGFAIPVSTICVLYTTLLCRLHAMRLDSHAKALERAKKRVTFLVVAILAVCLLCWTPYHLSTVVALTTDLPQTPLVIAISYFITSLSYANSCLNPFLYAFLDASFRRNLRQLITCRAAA
As to the kind of experiment: Fluorescence-based dose response cell-based high throughput screening assay to identify antagonists of the G-protein coupled receptor 7 (GPR7). [Related pubchem assays: 1952 (Screening assay (GPR7 antagonists).), 1880 (Summary AID.)]. The format is functional.

The target in assay [17] is Melanin-concentrating hormone receptor 1 (Homo sapiens, UniProt Q99705). The assay is described as follows: Fluorescence-based counterscreen for antagonists of the G-protein coupled receptor 7 (GPR7): cell-based high throughput dose response assay to identify antagonists of the melanin-concentrating hormone receptor 1 (MCHR1). It counts as functional.
The target of assay [18] is Photoreceptor-specific nuclear receptor (Homo sapiens, UniProt Q9Y5X4). It counts as functional.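 Note: potency for compounds that break the NR2E3 corepressor complex and count as activators.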
In assay [19] the target is Peroxisome proliferator-activated receptor gamma/Nuclear receptor corepressor 2 (Homo sapiens, UniProt P37231+Q9Y618). It counts as functional.
Chain of Peroxisome proliferator-activated receptor gamma/Nuclear receptor corepressor 2 (P37231 whole entry): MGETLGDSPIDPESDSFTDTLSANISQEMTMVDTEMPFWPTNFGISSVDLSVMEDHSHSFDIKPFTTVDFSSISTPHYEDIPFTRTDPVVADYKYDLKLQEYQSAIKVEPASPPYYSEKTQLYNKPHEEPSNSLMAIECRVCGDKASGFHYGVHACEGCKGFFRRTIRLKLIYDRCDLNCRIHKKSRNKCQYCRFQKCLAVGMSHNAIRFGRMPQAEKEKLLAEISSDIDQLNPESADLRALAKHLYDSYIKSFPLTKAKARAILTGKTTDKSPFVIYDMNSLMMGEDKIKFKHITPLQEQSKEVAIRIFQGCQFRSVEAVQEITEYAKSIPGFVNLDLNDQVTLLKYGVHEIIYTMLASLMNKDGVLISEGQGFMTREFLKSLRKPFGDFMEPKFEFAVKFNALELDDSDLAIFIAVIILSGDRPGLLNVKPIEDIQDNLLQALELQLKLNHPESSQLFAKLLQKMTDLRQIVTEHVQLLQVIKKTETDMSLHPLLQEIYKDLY
Chain of Peroxisome proliferator-activated receptor gamma/Nuclear receptor corepressor 2 (Q9Y618 whole entry): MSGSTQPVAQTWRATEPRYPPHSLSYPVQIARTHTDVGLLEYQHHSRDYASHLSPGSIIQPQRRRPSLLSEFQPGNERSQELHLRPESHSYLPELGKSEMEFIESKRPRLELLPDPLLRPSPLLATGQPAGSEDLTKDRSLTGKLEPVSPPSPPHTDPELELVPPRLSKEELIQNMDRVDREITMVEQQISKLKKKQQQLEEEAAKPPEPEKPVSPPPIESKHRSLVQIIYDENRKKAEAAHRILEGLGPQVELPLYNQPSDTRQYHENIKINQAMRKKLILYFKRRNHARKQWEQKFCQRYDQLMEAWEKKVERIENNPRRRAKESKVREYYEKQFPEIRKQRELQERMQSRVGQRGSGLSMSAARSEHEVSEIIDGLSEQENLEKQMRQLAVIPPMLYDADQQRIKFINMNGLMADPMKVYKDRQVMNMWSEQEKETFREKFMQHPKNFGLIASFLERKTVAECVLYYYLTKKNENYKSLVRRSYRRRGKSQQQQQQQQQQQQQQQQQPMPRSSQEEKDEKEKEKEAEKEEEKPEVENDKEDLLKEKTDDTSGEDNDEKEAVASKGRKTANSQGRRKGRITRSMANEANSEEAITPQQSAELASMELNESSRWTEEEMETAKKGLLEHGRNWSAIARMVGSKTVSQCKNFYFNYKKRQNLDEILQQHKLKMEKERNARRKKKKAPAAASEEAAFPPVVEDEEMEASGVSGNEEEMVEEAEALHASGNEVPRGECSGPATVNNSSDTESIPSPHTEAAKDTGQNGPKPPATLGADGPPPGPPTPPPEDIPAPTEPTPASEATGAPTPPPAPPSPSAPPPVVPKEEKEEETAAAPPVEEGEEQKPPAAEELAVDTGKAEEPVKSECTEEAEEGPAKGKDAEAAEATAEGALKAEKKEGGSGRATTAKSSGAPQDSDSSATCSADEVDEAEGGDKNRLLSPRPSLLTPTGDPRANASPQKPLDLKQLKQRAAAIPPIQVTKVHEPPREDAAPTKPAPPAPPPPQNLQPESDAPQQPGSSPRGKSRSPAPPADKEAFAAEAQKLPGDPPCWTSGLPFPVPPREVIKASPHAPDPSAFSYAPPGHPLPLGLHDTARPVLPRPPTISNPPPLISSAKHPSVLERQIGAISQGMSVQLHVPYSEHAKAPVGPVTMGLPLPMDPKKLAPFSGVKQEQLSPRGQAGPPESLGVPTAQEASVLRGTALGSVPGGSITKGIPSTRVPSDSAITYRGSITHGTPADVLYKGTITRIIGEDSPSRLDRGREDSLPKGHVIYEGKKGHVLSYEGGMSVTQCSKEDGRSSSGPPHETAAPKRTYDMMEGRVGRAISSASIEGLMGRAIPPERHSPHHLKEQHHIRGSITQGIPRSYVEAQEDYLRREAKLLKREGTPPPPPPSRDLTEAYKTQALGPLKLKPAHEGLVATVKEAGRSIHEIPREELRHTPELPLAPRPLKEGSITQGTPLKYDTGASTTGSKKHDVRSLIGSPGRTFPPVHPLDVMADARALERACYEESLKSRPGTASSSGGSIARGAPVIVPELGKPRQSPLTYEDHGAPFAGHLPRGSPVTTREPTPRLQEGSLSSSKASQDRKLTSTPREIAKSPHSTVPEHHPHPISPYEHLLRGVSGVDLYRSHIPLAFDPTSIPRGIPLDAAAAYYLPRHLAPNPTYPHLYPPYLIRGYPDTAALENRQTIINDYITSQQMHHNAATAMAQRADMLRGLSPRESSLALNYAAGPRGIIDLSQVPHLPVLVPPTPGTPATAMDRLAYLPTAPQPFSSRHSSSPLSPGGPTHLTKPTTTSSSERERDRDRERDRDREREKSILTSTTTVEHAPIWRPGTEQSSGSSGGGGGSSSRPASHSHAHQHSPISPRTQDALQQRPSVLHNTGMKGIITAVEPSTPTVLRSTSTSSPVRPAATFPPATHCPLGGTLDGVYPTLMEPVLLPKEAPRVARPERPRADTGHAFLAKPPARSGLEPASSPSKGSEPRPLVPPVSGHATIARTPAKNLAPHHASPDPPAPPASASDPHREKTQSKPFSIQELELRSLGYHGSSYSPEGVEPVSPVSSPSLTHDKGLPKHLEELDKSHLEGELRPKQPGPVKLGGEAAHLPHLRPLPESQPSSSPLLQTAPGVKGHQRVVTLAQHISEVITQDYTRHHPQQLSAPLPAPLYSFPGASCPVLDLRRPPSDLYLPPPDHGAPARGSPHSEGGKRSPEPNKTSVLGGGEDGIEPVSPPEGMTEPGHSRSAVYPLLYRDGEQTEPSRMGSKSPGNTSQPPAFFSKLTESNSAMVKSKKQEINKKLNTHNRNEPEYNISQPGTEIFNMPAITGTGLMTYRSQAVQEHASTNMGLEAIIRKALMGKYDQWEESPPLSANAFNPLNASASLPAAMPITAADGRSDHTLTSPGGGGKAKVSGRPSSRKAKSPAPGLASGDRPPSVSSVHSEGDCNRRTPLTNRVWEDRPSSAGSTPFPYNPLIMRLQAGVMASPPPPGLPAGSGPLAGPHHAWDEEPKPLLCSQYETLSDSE

T4 sequence (Q9HC97 whole entry): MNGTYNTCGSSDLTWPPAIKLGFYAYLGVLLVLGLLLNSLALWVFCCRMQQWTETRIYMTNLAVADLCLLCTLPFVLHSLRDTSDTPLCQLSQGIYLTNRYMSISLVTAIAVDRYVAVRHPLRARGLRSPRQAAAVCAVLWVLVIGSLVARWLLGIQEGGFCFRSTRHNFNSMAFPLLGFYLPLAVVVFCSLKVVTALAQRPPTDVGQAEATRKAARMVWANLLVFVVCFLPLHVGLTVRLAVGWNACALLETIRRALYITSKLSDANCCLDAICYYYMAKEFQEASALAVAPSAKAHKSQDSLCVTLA
Chain of Melanin-concentrating hormone receptor 1 (Q99705 whole entry): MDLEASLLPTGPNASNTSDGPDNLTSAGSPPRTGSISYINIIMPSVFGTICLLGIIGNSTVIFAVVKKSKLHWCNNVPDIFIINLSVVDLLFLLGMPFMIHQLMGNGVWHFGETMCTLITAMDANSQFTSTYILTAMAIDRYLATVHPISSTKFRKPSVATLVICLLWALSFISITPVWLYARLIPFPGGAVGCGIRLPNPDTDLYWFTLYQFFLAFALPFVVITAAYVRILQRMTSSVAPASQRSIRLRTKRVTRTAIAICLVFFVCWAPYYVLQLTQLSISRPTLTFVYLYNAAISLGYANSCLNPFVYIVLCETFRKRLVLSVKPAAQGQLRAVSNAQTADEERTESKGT
Chain of G2/mitotic-specific cyclin-B1 (P14635 whole entry): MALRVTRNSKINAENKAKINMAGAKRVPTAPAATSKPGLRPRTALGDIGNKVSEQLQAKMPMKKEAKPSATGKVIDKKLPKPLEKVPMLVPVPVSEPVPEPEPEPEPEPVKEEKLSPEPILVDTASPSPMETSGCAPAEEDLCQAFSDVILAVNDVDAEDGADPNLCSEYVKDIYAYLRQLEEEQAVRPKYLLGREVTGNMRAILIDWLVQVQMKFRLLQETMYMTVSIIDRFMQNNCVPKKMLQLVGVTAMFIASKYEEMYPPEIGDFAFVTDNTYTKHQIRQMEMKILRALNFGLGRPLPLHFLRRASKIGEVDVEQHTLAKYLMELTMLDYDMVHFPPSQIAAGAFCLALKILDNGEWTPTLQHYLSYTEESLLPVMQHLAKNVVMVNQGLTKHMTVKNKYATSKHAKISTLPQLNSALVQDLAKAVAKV
Chain of Protein Rev (P05866 whole entry): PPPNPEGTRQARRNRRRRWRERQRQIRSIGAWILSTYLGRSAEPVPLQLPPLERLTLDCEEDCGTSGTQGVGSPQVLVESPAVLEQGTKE
Chain of Lysosomal acid glucosylceramidase (P04062 whole entry): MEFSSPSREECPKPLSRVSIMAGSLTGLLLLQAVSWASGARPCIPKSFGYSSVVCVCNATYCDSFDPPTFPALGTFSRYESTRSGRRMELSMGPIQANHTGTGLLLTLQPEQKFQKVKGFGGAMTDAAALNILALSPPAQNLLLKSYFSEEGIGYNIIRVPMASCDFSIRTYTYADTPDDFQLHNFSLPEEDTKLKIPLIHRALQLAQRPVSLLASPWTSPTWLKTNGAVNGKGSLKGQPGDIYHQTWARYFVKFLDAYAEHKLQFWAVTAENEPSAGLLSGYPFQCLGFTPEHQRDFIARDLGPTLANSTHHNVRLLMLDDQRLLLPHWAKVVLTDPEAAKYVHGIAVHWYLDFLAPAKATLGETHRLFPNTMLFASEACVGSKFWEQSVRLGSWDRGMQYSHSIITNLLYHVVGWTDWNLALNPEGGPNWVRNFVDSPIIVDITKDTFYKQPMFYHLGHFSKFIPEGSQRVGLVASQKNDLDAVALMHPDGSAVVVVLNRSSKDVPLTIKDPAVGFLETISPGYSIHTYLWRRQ

For `Cc1ccc(SCC(=O)N2c3ccccc3Sc3ccccc32)cc1`, the EC50 in assay [1] is > 150 µM (not active); with Streptococcus [2] it was > 500 µM (not active); on Streptokinase A, 10.9 µM (active); in the assay on Streptococcus [3], > 150 µM (not active).
On to `CCOC(=O)C1=C(c2ccccc2)O/C(=C(/C#N)C(F)(F)F)S1`, for which the EC50 is > 1.84 µM (active) in assay [4]; 0.84 µM (active) in assay [5]; > 1.84 µM (active) at Wee1-like protein kinase; 4.58 µM (inconclusive) in the assay with BJ [6]; 2.37 µM (active) in assay [7]; 4.88 µM (active) in assay [8]. Also, the EC50 is 5.47 µM (inconclusive) in the assay on BJ [9], 6.24 µM (inconclusive) in [10] and 0.723 µM (active) at Protein RecA. Further, the AC50 in [11] is > 380 µM (inactive).
As to `COc1ccc(S(=O)(=O)NCC(=O)N(CC(=O)NCC2CCCO2)c2ccccc2C)cc1` (centres undefined), the EC50 in assay [12] is > 50 µM (not active).
Turning to `COC(=O)c1cnn(-c2ccc(F)cc2F)c1/C=N/NC(=S)Nc1ccc(Cl)cc1`, the IC50 in [13] is 0.171 µM (active); in assay [14], 1.69 µM (active); in assay [15], > 32 µM (inactive).
In the case of `CC(C)C[C@@H](CC(=O)N[C@H](CC(=O)N[C@@H]1CCNC[C@H]1C(=O)N[C@H](CC(=O)N[C@@H](CCC(=O)O)CC(=O)O)CC(C)C)C(C)C)NC(=O)[C@@H]1CNCC[C@H]1N`, the AC50 at Cytochrome P450 2C9 was 39.8 µM (inconclusive).
Consider `CNCCCOc1ccc(C(C)(C)c2ccccc2)cc1`, for which the IC50 on Protein Rev is reported as > 79.4 µM (not active).
As for `Cc1ccccc1CN1C(=O)c2ccccc2Sc2ccc(C(=O)NCCCN3CCOCC3)cc21`, the IC50 was 8.23 µM (active) in assay [16] and 12.1 µM (not active) in [17].
Turning to `CCOc1ncccc1C(=O)Nc1ccc(C(=O)Nc2ccc(OC)cc2)cc1`, the IC50 is > 39.8 µM (not active) in assay [18] and 3.53 µM (active) in assay [19].
